The inhibition is the change of the read-out against control, counted positive when it falls.

Experiment [1] deals with Ribosomal protein S6 kinase alpha-1 (Homo sapiens) (UniProt Q15418). Put plainly: Inhibition of RSK1 domain2 conserved Lys2 (DLKPSNILYVDESGNPECLR) in human PBMC at 0.1 uM.
The target of experiment [2] is Serine/threonine-protein kinase SMG1 (Homo sapiens) (UniProt Q96Q15). The experiment in a line: Inhibition of SMG1 ATP binding site (DTVTIHSVGGTITILPTKTKPK) in human PBMC at 1 uM.
Experiment [3] addresses STE20-like serine/threonine-protein kinase (Homo sapiens) (UniProt Q9H2G2). The experiment in a line: Inhibition of SLK conserved Lys2 (DLKAGNILFTLDGDIK) in human PBMC at 1 uM.
For experiment [4], the target named is Tyrosine-protein kinase HCK (Homo sapiens) (UniProt P08631). The experiment in a line: Inhibition of HCK activation Loop (EGAKFPIKWTAPEAINFGSFTIK) in human PBMC at 1 uM.
Experiment [5] addresses Cyclin-dependent kinase 17 (Homo sapiens) (UniProt Q00537). The experiment in a line: Inhibition of PCTAIRE2 conserved Lys2 (DLKPQNLLINEK) in human PBMC at 0.1 uM.
Experiment [6] has as its target Ribosomal protein S6 kinase alpha-2 (Homo sapiens) (UniProt Q15349). Put plainly: Inhibition of RSK3 domain1 conserved Lys2 (DLKPENILLDEEGHIK) in human PBMC at 0.1 uM.
Experiment [7] concerns the target Mitogen-activated protein kinase 8 (Homo sapiens) (UniProt P45983). Put plainly: Inhibition of JNK1 conserved Lys2 (DLKPSNIVVK) in human PBMC at 0.1 uM.
In experiment [8] the target is Dual specificity mitogen-activated protein kinase kinase 7 (Homo sapiens) (UniProt O14733). Put plainly: Inhibition of MAP2K7 conserved Lys2 (DVKPSNILLDER) in human PBMC at 0.1 uM.
For experiment [9], the target named is T1, Phosphatidylinositol 4,5-bisphosphate 3-kinase catalytic subunit delta isoform (Homo sapiens) (UniProt O00329).
T1 sequence (whole entry): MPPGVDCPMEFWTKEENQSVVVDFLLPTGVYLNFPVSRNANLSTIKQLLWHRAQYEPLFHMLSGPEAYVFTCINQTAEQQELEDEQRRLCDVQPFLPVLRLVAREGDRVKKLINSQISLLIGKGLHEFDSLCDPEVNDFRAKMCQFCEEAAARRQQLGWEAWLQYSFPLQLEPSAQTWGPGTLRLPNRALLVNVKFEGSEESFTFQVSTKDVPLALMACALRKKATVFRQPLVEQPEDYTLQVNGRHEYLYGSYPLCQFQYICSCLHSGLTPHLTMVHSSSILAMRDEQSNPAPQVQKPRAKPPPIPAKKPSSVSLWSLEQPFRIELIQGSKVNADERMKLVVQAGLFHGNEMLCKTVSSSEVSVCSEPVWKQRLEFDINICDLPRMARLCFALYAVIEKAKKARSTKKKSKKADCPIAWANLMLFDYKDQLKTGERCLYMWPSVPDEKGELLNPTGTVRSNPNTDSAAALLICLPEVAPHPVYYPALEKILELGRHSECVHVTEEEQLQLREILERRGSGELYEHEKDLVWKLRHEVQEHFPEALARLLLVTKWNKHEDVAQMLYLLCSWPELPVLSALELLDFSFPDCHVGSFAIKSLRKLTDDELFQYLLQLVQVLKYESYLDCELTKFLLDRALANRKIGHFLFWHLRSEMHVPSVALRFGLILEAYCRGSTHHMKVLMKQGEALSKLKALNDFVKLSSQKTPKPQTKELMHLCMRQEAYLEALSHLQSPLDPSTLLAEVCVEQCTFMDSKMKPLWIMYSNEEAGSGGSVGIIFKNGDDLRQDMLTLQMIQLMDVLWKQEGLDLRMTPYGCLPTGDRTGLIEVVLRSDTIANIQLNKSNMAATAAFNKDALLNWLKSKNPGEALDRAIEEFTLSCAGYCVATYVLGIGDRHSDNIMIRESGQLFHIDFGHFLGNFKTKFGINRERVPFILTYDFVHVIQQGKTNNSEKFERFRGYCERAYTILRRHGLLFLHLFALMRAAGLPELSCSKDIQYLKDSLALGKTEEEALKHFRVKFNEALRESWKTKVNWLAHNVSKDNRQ
Put plainly: Inhibition of PIK3CD ATP binding site (VNWLAHNVSKDNRQ) in human PBMC at 1 uM.

Experiment [10] addresses Myosin light chain kinase, smooth muscle (Homo sapiens) (UniProt Q15746). The experiment in a line: Inhibition of smMLCK conserved Lys1 (VWAGKFFK) in human PBMC at 0.1 uM.
For experiment [11], the target named is Serine/threonine-protein kinase Nek7 (Homo sapiens) (UniProt Q8TDX7). The experiment in a line: Inhibition of NEK7 conserved Lys2 (DIKPANVFITATGVVK) in human PBMC at 1 uM.
Experiment [12] has as its target Mitogen-activated protein kinase 9 (Homo sapiens) (UniProt P45984). The experiment in a line: Inhibition of JNK2 conserved Lys2 (DLKPSNIVVK) in human PBMC at 1 uM.
Experiment [13] has as its target Myosin light chain kinase, smooth muscle (Homo sapiens) (UniProt Q15746). The experiment in a line: Inhibition of smMLCK conserved Lys2 (QGIVHLDLKPENIMCVNK) in human PBMC at 0.1 uM.
Experiment [14] concerns the target Kinase suppressor of Ras 2 (Homo sapiens) (UniProt Q6VAB6). The experiment in a line: Inhibition of KSR2 activation Loop (SKNVFYDNGK) in human PBMC at 0.1 uM.
For experiment [15], the target named is Cyclin-dependent kinase 7 (Homo sapiens) (UniProt P50613). Put plainly: Inhibition of CDK7 labeling at conserved Lys2 (DLKPNNLLLDENGVLK) in human PBMC at 1 uM.
The target in experiment [16] is Serine/threonine-protein kinase 25 (Homo sapiens) (UniProt O00506). Put plainly: Inhibition of YSK1 conserved Lys2 (DIKAANVLLSEQGDVK) in human PBMC at 0.1 uM.
For experiment [17], the target named is T1, Phosphatidylinositol 4,5-bisphosphate 3-kinase catalytic subunit delta isoform (Homo sapiens). Put plainly: Inhibition of PIK3CD ATP binding site (TKVNWLAHNVSKDNRQ) in human PBMC at 1 uM.
Experiment [18] deals with eIF-2-alpha kinase GCN2 (Homo sapiens) (UniProt Q9P2K8). The experiment in a line: Inhibition of GCN2 conserved Lys2 (DLKPVNIFLDSDDHVK) in human PBMC at 1 uM.
Experiment [19] addresses Serine/threonine-protein kinase 10 (Homo sapiens) (UniProt O94804). The experiment in a line: Inhibition of LOK conserved Lys2 (DLKAGNVLMTLEGDIR) in human PBMC at 0.1 uM.

Chain of Myosin light chain kinase, smooth muscle (Homo sapiens) (Q15746 whole entry): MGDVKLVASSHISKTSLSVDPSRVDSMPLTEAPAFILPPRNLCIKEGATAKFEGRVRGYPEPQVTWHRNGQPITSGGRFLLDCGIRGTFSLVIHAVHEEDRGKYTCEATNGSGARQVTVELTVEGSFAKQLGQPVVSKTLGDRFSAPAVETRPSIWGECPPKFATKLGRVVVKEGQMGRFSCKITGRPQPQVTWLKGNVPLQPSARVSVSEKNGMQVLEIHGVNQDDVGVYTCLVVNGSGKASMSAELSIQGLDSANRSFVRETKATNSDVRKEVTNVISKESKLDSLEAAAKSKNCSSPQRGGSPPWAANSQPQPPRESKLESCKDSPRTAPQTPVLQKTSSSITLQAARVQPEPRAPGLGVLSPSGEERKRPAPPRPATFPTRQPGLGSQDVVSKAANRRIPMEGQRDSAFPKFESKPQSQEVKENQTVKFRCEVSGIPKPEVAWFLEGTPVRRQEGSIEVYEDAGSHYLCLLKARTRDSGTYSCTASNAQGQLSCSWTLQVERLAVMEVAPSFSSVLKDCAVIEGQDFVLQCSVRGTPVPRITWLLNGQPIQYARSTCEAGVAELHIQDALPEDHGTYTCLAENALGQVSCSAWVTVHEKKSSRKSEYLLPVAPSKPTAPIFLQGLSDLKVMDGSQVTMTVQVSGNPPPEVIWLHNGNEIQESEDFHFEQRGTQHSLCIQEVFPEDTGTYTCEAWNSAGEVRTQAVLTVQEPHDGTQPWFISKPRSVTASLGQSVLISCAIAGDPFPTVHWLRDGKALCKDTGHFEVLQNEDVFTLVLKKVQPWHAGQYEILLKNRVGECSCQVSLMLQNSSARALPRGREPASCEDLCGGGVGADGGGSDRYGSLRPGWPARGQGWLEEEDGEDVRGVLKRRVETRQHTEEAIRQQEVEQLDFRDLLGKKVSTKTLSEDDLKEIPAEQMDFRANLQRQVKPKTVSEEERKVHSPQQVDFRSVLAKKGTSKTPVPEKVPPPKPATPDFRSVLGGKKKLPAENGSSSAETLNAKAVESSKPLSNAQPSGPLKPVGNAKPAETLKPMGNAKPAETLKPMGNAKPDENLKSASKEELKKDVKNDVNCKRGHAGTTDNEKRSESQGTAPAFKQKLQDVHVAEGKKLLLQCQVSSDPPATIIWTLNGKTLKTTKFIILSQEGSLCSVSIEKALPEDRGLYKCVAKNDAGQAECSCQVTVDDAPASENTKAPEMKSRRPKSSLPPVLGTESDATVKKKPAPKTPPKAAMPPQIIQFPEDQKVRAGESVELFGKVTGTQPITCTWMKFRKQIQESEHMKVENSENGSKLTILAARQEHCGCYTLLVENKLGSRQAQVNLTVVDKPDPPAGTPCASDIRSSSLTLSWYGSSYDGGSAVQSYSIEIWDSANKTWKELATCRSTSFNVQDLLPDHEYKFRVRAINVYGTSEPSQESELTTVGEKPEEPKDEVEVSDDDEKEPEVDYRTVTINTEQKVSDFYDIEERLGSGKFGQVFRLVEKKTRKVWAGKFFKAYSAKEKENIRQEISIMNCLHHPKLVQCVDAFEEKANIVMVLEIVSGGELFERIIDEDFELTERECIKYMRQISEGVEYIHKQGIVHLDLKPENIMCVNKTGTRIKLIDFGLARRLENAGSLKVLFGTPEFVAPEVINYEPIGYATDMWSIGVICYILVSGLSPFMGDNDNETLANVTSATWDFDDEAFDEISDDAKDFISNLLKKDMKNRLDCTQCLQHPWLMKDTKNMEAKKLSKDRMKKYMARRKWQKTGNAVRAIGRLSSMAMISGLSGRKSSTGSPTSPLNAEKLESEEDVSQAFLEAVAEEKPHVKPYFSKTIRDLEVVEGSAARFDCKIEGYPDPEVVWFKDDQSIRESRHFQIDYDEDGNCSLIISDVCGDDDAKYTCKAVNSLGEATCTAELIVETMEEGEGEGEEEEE
Chain of Cyclin-dependent kinase 17 (Homo sapiens) (Q00537 whole entry, looked up, the tested form may be a part): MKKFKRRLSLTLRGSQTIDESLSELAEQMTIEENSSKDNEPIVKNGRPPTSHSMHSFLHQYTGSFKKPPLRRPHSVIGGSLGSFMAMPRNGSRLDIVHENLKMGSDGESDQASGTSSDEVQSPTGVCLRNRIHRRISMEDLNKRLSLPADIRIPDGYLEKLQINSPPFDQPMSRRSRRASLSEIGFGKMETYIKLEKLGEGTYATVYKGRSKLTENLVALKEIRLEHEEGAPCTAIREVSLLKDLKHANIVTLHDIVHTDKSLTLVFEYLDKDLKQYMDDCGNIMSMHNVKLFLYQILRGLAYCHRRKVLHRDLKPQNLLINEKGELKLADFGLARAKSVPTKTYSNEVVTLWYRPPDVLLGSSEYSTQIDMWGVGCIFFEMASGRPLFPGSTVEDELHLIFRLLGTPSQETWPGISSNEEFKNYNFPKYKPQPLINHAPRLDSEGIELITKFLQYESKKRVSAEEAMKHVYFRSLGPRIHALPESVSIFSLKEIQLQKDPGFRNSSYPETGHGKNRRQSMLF
Chain of Tyrosine-protein kinase HCK (Homo sapiens) (P08631 2-526 limits assumed): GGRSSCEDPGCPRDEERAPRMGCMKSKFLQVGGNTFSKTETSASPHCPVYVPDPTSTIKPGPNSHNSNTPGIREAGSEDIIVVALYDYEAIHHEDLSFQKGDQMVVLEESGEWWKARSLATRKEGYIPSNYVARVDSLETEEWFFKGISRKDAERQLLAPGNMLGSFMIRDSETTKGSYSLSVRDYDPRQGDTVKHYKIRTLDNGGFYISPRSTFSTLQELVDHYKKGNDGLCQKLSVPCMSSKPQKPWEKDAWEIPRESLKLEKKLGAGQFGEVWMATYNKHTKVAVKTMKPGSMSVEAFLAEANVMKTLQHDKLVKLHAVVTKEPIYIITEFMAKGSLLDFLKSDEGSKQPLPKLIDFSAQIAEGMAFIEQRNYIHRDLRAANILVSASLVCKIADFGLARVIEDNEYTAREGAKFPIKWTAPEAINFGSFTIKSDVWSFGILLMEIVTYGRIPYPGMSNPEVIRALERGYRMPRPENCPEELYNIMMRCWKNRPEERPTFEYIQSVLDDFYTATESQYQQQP
Chain of Serine/threonine-protein kinase 25 (Homo sapiens) (O00506 whole entry, looked up, canonical isoform): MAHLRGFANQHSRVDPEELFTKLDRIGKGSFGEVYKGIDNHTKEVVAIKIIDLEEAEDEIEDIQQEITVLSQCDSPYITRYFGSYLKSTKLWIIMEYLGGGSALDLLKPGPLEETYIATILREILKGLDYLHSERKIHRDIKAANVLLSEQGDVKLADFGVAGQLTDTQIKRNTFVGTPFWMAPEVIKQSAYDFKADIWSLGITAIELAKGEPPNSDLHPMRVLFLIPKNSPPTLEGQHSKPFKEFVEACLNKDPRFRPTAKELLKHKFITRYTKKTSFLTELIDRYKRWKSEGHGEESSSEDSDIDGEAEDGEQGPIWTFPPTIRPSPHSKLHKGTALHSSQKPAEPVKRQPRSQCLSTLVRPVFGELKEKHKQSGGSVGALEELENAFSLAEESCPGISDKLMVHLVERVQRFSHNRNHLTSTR
Chain of Cyclin-dependent kinase 7 (Homo sapiens) (P50613 whole entry): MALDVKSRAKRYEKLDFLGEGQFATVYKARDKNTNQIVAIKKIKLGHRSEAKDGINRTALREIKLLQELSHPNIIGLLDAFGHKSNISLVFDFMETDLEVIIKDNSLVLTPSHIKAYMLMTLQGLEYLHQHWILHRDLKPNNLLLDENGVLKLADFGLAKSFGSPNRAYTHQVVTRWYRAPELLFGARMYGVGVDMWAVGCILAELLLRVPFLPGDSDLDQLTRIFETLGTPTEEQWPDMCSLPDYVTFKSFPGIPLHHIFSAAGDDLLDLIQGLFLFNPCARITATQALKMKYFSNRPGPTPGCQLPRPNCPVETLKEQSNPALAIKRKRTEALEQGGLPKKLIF
Chain of Serine/threonine-protein kinase Nek7 (Homo sapiens) (Q8TDX7 whole entry, looked up): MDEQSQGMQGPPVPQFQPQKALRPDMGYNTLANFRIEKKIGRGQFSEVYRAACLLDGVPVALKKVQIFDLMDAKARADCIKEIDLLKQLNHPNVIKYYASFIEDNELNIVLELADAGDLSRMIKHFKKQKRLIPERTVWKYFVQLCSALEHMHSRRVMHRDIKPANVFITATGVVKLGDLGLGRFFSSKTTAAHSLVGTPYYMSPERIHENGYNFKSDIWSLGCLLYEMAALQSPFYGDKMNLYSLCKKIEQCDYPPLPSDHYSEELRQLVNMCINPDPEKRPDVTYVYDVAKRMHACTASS
Chain of Mitogen-activated protein kinase 8 (Homo sapiens) (P45983 whole entry): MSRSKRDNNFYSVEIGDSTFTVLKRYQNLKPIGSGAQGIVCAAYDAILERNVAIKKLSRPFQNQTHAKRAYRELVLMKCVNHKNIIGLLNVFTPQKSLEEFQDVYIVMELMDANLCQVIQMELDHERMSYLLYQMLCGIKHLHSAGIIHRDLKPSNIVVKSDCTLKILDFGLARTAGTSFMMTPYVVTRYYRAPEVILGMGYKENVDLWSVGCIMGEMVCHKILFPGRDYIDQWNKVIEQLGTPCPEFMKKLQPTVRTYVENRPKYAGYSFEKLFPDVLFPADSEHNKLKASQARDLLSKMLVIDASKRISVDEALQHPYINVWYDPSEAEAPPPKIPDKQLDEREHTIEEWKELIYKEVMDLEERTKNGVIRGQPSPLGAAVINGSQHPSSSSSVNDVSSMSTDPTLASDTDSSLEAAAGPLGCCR
Chain of Mitogen-activated protein kinase 9 (Homo sapiens) (P45984 whole entry, looked up): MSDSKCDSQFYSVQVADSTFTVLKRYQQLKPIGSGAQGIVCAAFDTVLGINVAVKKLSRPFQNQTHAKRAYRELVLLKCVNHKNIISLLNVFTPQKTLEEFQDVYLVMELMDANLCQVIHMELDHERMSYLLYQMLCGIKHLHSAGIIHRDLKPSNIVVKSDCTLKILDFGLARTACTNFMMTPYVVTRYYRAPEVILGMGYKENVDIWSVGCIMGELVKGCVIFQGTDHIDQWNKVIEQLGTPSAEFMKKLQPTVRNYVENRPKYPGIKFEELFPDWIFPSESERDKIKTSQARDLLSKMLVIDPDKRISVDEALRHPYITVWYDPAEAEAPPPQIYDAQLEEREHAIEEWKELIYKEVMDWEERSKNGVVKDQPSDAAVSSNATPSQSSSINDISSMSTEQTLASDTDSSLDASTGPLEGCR

With `CC(C)n1cc(-c2cc(-c3ccc(CN4CCOCC4)cc3)cnc2N)nn1`, the inhibition in experiment [1] was 8.3%; in experiment [2], -8.2%; in experiment [3] it was 30.5%; in experiment [4], -2.2%; in [5], 21.7%; in [6], 11.8%. The inhibition in [7] is 25.1%; in experiment [8], 31.6%; in [9] it was 8%; in experiment [10] it was 29.6%; in experiment [11], -9.6%; in experiment [12], 23.9%. Also, the inhibition in experiment [13] is 11.3%; in experiment [14], 20.4%; in experiment [15] it was -5.5%; in experiment [16], 0.5%; in experiment [17], 4%; in experiment [18], -2%. The inhibition in [19] worked out at 13.8%.

For the origin of these results see ChEMBL document CHEMBL4043168, “The design and SAR of a novel series of 2-aminopyridine based LRRK2 inhibitors” (Bioorg Med Chem Lett, 2017).
